Measurements taken from PubChem BioAssay AID328 (DTP/NCI, 2004).
Values joined by “and” are separate entries in the source; they are usually repeats but may differ in a detail not shown here. Equal entries are not always repeated. Toxic doses and inconclusive results are not listed. Rule for the calls: active = survival T/C of 150% or more; inactive = T/C below 125% in these data.

Tested on: BDF1 mice, P388 leukemia ip, median survival T/C
Assay: NCI In Vivo Anticancer Drug Screen. Data for tumor model P388 Leukemia (intraperitoneal) in B6D2F1 (BDF1) mice
Details: endpoint: median survival time, higher = longer survival
Summary of the method: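 Read-out is survival of treated animals expressed relative to the vehicle group, as a T/C ratio.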

[1] = dose: 50.0 mg/kg/injection, schedule: Q04DX003 (ip), vehicle: Klucel (hydroxypropylcellulose) (HPC)
[2] = dose: 100.0 mg/kg/injection, schedule: Q04DX003 (ip), vehicle: Klucel (hydroxypropylcellulose) (HPC)
[3] = dose: 200.0 mg/kg/injection, schedule: Q04DX003 (ip), vehicle: Klucel (hydroxypropylcellulose) (HPC)
[4] = dose: 100.0 mg/kg/injection, schedule: Q01DX009 (ip), vehicle: saline with Tween-80
[5] = dose: 200.0 mg/kg/injection, schedule: Q01DX009 (ip), vehicle: saline with Tween-80
[6] = dose: 400.0 mg/kg/injection, schedule: Q04DX003 (ip), vehicle: Klucel (hydroxypropylcellulose) (HPC)
[7] = dose: 25.0 mg/kg/injection, schedule: Q01DX009 (ip), vehicle: Klucel (hydroxypropylcellulose) (HPC)
[8] = dose: 50.0 mg/kg/injection, schedule: Q01DX009 (ip), vehicle: Klucel (hydroxypropylcellulose) (HPC)

Measured: T/C

COC(OC)C1(O)CC(C(C)/C=C(/C)C(CC(=O)N(C)c2ccccc2)OCc2ccccc2)OC(=O)N1 (configuration not stated)
inactive: [1] 99 % of control | [2] 109 % of control | [3] 118 % of control

O=C(N=Nc1c(O)[nH]c2c(Cl)cc(Cl)cc12)C(=O)Nc1cccc(C(F)(F)F)c1
inactive: [4] 90 % of control | [5] 96 % of control

ClC(Cl)(Cl)C1OCOC(C(Cl)(Cl)Cl)OCO1 (configuration not stated)
inactive: [2] 90 % of control | [3] 100 % of control | [6] 90 % of control

O=C(OC(c1ccccc1)c1ccccc1)C(CSC(c1ccccc1)(c1ccccc1)c1ccccc1)NC(c1ccccc1)(c1ccccc1)c1ccccc1 (configuration not stated)
inactive: [2] 100 % of control | [3] 109 % of control | [6] 104 % of control

Cc1nnc2ncnn2c1N(C)c1ccccc1
inactive: dose: 50.0 mg/kg/injection, schedule: Q04DX003 (ip), vehicle: saline with Tween-80 100 % of control | dose: 100.0 mg/kg/injection, schedule: Q04DX003 (ip), vehicle: saline with Tween-80 95 % of control | dose: 200.0 mg/kg/injection, schedule: Q04DX003 (ip), vehicle: saline with Tween-80 100 % of control

Cc1ccc(NC(=O)c2ccccc2)cc1[As]=[As]c1cc(NC(=O)c2ccccc2)ccc1C (configuration not stated)
inactive: dose: 1.25 mg/kg/injection, schedule: Q04DX003 (ip), vehicle: gum acacia 122 % of control | dose: 2.2 mg/kg/injection, schedule: Q04DX003 (ip), vehicle: gum acacia 113 % of control | dose: 3.3 mg/kg/injection, schedule: Q04DX003 (ip), vehicle: Klucel (hydroxypropylcellulose) (HPC) 116 % of control | dose: 5.0 mg/kg/injection, schedule: Q04DX003 (ip), vehicle: Klucel (hydroxypropylcellulose) (HPC) 104 % of control
active: dose: 1.25 mg/kg/injection, schedule: Q01DX009 (ip), vehicle: gum acacia 150 % of control | dose: 2.5 mg/kg/injection, schedule: Q01DX009 (ip), vehicle: gum acacia 165 % of control | dose: 10.0 mg/kg/injection, schedule: Q04DX003 (ip), vehicle: gum acacia 154 % of control

O=C(Nc1cccc(Cl)c1)N1c2ccccc2SC1c1ccco1 (configuration not stated)
inactive: dose: 50.0 mg/kg/injection, schedule: Q01DX009 (ip), vehicle: saline with Tween-80 91 % of control | [4] 107 % of control | [5] 109 % of control

COC(=O)C(CO)NC(=O)OCc1ccc(OC)cc1 (configuration not stated)
inactive: dose: 12.5 mg/kg/injection, schedule: Q01DX009 (ip), vehicle: distilled water + Tween-80 87 % of control | dose: 25.0 mg/kg/injection, schedule: Q01DX009 (ip), vehicle: distilled water + Tween-80 89 % of control | dose: 50.0 mg/kg/injection, schedule: Q01DX009 (ip), vehicle: distilled water + Tween-80 104 % of control | dose: 100.0 mg/kg/injection, schedule: Q01DX009 (ip), vehicle: distilled water + Tween-80 114 % of control

Nc1ncnc2c1cnn2Cc1ccc(Cl)cc1
inactive: dose: 12.5 mg/kg/injection, schedule: Q04DX003 (ip), vehicle: Klucel (hydroxypropylcellulose) (HPC) 118 % of control | dose: 16.5 mg/kg/injection, schedule: Q04DX003 (ip), vehicle: Klucel (hydroxypropylcellulose) (HPC) 91 % of control and 100 % of control | [7] 90 % of control | dose: 25.0 mg/kg/injection, schedule: Q04DX003 (ip), vehicle: Klucel (hydroxypropylcellulose) (HPC) 91 % of control and 100 % of control | dose: 37.5 mg/kg/injection, schedule: Q04DX003 (ip), vehicle: Klucel (hydroxypropylcellulose) (HPC) 95 % of control | [8] 95 % of control | [1] 104 % of control

CC1(C)SC2C(NC(=O)C(C(=O)O)c3ccccc3)C(=O)N2C1C(=O)O (configuration not stated)
inactive: dose: 50.0 mg/kg/injection, schedule: Q01DX010 (ip), vehicle: saline 122 % of control | dose: 100.0 mg/kg/injection, schedule: Q01DX010 (ip), vehicle: saline 113 % of control | dose: 200.0 mg/kg/injection, schedule: Q01DX010 (ip), vehicle: saline 113 % of control | dose: 400.0 mg/kg/injection, schedule: Q01DX010 (ip), vehicle: saline 118 % of control

CCN(CC)c1ccc(C2NC(=O)c3ccccc3N2)cc1 (configuration not stated)
inactive: [7] 110 % of control | [8] 120 % of control | dose: 100.0 mg/kg/injection, schedule: Q01DX009 (ip), vehicle: Klucel (hydroxypropylcellulose) (HPC) 95 % of control
